In patent US20080292584A1 (priority 2005, published 2008):
Where “and” joins values, the source holds several entries; their conditions need not be identical. Equal values may be shown once. Read-outs that look alike come from different tables or passages of the source.

Assays:
CYP2A6 [1] = target: T1, CYP2A6 (Homo sapiens, UniProt P11509); assay: Inhibition of CYP2A6 activity in pooled human liver microsomes (coumarin 8 μM to 7-hydroxy coumarin); format: in vitro ADME
T1 sequence (P11509 1-494): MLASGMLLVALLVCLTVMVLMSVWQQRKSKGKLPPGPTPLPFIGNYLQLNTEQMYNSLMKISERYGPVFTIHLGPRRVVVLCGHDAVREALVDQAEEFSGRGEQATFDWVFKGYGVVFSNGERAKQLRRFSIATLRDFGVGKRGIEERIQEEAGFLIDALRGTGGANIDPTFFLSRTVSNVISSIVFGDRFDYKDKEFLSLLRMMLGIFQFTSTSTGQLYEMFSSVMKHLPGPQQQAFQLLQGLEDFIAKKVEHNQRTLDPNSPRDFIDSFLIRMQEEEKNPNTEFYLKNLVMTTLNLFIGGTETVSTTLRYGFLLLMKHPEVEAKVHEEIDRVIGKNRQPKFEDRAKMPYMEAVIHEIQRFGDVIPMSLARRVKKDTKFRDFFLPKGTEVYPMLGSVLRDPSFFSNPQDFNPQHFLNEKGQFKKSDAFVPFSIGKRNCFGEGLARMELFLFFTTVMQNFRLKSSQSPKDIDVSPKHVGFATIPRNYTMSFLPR
Description: All other incubations were for 30 minutes.
Four replicates were performed.
Two replicates were performed.

CYP2C19 = CYP2C19 (Homo sapiens, UniProt P33261); conditions: for 4′-Hydroxymephenytoin formation Adjusted Individual / 4′-Hydroxymephenytoin formation Adjusted Mean ± SD: 4 h; for Percent of VC / Specific Activity Individual / Specific Activity Mean ± SD: 48 h
Chain of CYP2C19 (P33261 whole entry): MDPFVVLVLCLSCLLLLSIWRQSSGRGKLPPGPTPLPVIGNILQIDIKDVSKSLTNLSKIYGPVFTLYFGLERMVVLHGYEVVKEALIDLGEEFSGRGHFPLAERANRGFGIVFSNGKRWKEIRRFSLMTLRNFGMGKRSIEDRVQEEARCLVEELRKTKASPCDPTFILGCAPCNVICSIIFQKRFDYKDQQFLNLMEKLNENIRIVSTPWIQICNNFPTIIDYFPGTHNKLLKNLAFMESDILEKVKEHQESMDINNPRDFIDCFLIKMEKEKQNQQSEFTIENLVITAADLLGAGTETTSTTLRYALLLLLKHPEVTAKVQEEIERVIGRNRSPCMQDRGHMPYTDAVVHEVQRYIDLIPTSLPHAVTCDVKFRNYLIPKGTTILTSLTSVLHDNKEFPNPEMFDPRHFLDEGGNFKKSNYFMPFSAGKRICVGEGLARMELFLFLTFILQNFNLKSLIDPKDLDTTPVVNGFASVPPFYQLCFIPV
Description: (§1) Hepatocytes from three human donors were obtained from a cryopreserved hepatocyte bank (In Vitro Technologies, Inc., USA). After thawing, viable hepatocytes were transferred to collagen-coated 48-well plates for attachment in plating medium (DMEM stock (Dulbecco's modified Eagle's medium, supplemented with bovine serum albumin, fructose, N-(2-hydroxyethyl)piperazine-N′-(2-ethanesulfonate) (HEPES), and sodium bicarbonate), supplemented with antibiotics, bovine serum, hydrocortisone, insulin and minimum essential medium (MEM) nonessential amino acids). After attachment to the collagen matrix, plating medium was replaced with sandwich medium (plating medium supplemented with VITROGEN) and incubated until use.
(§2) The supplemented KHB was replaced with 150 μL supplemented KHB containing the appropriate isoform-selective substrate and incubated for 4 hrs prior to termination by adding 150 μL ice-cold methanol, except for the CYP2C8 incubations which were terminated by adding 150 μL acetonitrile.
(§3) All substrates were dissolved in acetonitrile.
(§4) Replicate trials and controls were performed. […] Additionally, reference control samples were included to evaluate inducibility of CYP2B6, CYP2C9, and CYP2C19 in the test system.
(§5) Mean specific activity values with associated p-values≦0.05 were deemed to be statistically significant.

CYP2D6 [2] = target: T2, CYP2D6 (Homo sapiens, UniProt P10635); assay: Induction/inhibition of CYP2D6 activity in cryopreserved human hepatocytes (dextromethorphan)
T2 sequence (P10635 whole entry): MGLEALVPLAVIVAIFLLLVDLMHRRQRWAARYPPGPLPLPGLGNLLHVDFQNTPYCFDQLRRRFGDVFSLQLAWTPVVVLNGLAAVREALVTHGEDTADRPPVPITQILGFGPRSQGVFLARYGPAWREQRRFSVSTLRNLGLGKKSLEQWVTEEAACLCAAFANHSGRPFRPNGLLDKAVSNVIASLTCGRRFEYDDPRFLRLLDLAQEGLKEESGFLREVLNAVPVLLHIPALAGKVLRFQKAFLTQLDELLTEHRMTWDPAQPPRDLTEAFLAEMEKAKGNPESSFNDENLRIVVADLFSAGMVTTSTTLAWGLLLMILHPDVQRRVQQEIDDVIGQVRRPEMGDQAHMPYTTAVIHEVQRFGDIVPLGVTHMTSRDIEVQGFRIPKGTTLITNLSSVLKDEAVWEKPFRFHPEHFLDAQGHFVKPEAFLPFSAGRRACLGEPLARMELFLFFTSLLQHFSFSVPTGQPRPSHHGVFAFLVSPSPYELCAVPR
Description: as §1, §2, §3, §4, §5

CYP2A6 [3] = target: T1, CYP2A6; assay: Metabolism of metaxalone by expressed recombinant human CYP2A6 at 5 or 20 pmol (Example 4); conditions: for % Turnover Mean / [metaxalone] Mean / % Turnover % / [metaxalone]: 60 min; for % Turnover % / [metaxalone]: single replicates
CYP2B6 = assay: Chemical inhibition of metaxalone turnover in human liver microsomes, CYP2B6 inhibitor thio-TEPA; conditions: 1 mg/mL HLM, 60 min, with thio-TEPA; for % Turnover / % inhibition of turnover / Conc.: single replicates
Description: (§6) Human liver microsomes pooled from 15 individuals (male and female) (Pool HMMC-PL020; CellzDirect, Inc., In Vitro Products and Services Division) were used in some experiments of this study.
(§7) % Turnover=100−{[TA(final)]/[mean of TA(0 min)]}×100,
(§8) % Inhibition of Turnover=100{1−([TA(0 min)]−[TA(final-inhibitor)])/([TA(0 min)]−[TA(final-no inhibitor)])}.
(§9) The inhibitors or vehicle control were incubated with the pooled human liver microsomes (1 mg/mL) and NADPH (1 mM) in 0.1 M phosphate buffer, pH 7.4. […] Incubations were conducted in triplicate and terminated by addition of organic solvent. Samples were extracted and analyzed by LC-MS/MS as described above.

CYP2D6 [4] = target: T2, CYP2D6; assay: Chemical inhibition of metaxalone turnover in human liver microsomes, CYP2D6 inhibitor quinidine; conditions: 7.5 μM metaxalone; 1 mg/mL HLM; 60 min; with quinidine; single replicates
Description: as §6, §7, §8, §9

[5] = CYP isozyme 2A6, summary of studies
[6] = 0.75 μM metaxalone, 5 pmol cyp, listed as Metaxalone
[7] = 0.75 μM metaxalone, 20 pmol cyp
[8] = 0.75 μM metaxalone, 20 pmol cyp, listed as Metaxalone
[9] = 7.5 μM metaxalone, 5 pmol cyp, listed as Metaxalone
[10] = 7.5 μM metaxalone, 20 pmol cyp, listed as Metaxalone
[11] = 7.5 μM metaxalone, listed as Metaxalone

## Cc1cc(C)cc(OCC2CNC(=O)O2)c1 (centres unmarked) [metaxalone, 5-[(3,5-dimethylphenoxy)methyl]-2-oxazolidinone]
CYP2A6 [1]; 0.3-100 μM metaxalone
  inhibition of CYP activity at a statistically significant level: no tested concentration of metaxalone inhibited activity
CYP2A6 [1]; [5]
  Inhibitor: 0
CYP2A6 [1]; metaxalone 0.3 μM
  Percent of VC: 96.9%
  Specific Activity Individual: 430 pmol/min/mg protein and 398 pmol/min/mg protein and 410 pmol/min/mg protein
  Specific Activity Mean ± SD: 413 ± 16.0 pmol/min/mg protein
CYP2A6 [1]; metaxalone 1 μM
  Percent of VC: 95.7%
  Specific Activity Individual: 399 pmol/min/mg protein and 409 pmol/min/mg protein and 414 pmol/min/mg protein
  Specific Activity Mean ± SD: 407 ± 7.36 pmol/min/mg protein
CYP2A6 [1]; metaxalone 3 μM
  Percent of VC: 102%
  Specific Activity Individual: 420 pmol/min/mg protein and 453 pmol/min/mg protein and 435 pmol/min/mg protein
  Specific Activity Mean ± SD: 436 ± 16.1 pmol/min/mg protein
CYP2A6 [1]; metaxalone 30 μM
  Percent of VC: 107%
  Specific Activity Individual: 433 pmol/min/mg protein and 461 pmol/min/mg protein and 471 pmol/min/mg protein
  Specific Activity Mean ± SD: 455 ± 19.7 pmol/min/mg protein
CYP2A6 [1]; metaxalone 100 μM
  Percent of VC: 94.8%
  Specific Activity Individual: 395 pmol/min/mg protein and 393 pmol/min/mg protein and 423 pmol/min/mg protein
  Specific Activity Mean ± SD: 404 ± 16.6 pmol/min/mg protein
CYP2C19
  Inducer/Inhibitor: 0
CYP2C19; 0.4 µM
  4′-Hydroxymephenytoin formation Adjusted Individual: <0.0500 µM
  4′-Hydroxymephenytoin formation Adjusted Mean ± SD: <0.0500 ± 0.000 µM
  Percent of VC: 100%
  Specific Activity Individual: <0.446 pmol/min/million cells
  Specific Activity Mean ± SD: <0.446 ± 0.000 pmol/min/million cells
CYP2C19; 0.4 μM
  4′-Hydroxymephenytoin formation Adjusted Individual: <0.0500 µM
  4′-Hydroxymephenytoin formation Adjusted Mean ± SD: <0.0500 ± 0.000 µM
  Percent of VC: 100%
  Specific Activity Individual: <0.446 pmol/min/million cells
  Specific Activity Mean ± SD: <0.446 ± 0.000 pmol/min/million cells
CYP2C19; 4 µM
  4′-Hydroxymephenytoin formation Adjusted Individual: <0.0500 µM
  4′-Hydroxymephenytoin formation Adjusted Mean ± SD: <0.0500 ± 0.000 µM
  Percent of VC: 100%
  Specific Activity Individual: <0.446 pmol/min/million cells
  Specific Activity Mean ± SD: <0.446 ± 0.000 pmol/min/million cells
CYP2C19; 4 μM
  4′-Hydroxymephenytoin formation Adjusted Individual: <0.0500 µM
  4′-Hydroxymephenytoin formation Adjusted Mean ± SD: <0.0500 ± 0.000 µM
  Percent of VC: 100%
  Specific Activity Individual: <0.446 pmol/min/million cells
  Specific Activity Mean ± SD: <0.446 ± 0.000 pmol/min/million cells
CYP2C19; 40 µM
  4′-Hydroxymephenytoin formation Adjusted Individual: <0.0500 µM
  4′-Hydroxymephenytoin formation Adjusted Mean ± SD: <0.0500 ± 0.000 µM
  Percent of VC: 100%
  Specific Activity Individual: <0.446 pmol/min/million cells
  Specific Activity Mean ± SD: <0.446 ± 0.000 pmol/min/million cells
CYP2C19; 40 μM
  4′-Hydroxymephenytoin formation Adjusted Individual: <0.0500 µM
  4′-Hydroxymephenytoin formation Adjusted Mean ± SD: <0.0500 ± 0.000 µM
  Percent of VC: 100%
  Specific Activity Individual: <0.446 pmol/min/million cells
  Specific Activity Mean ± SD: <0.446 ± 0.000 pmol/min/million cells
CYP2D6 [2]
  Inducer/Inhibitor: −
CYP2D6 [2]; Donor 3, Metaxalone 0.4 μM
  Percent of VC: 98.8%
CYP2D6 [2]; Donor 3, Metaxalone 4 μM
  Percent of VC: 89.8%
  Specific Activity Mean ± SD: 0.533 ± 0.0146 pmol/min/million cells
CYP2D6 [2]; hepatocytes
  CYP2D6 activity: below the lower limit of quantitation
CYP2D6 [2]; human, 48 h, 4 μM
  Percent of VC: 100%
CYP2D6 [2]; human, hepatocytes, 48 h, 40 μM
  effect on CYP2D6 activity: significantly reduced CYP2D6 activity
CYP2A6 [3]; 0.75 μM metaxalone, 5 pmol cyp
  % Turnover Mean: 0.14%
  [metaxalone] Mean: 0.790 µM
  % Turnover %: −4.1%
CYP2A6 [3]; [6]
  % Turnover %: 1.8% and 2.8%
  [metaxalone]: 0.777 µM and 0.824 µM and 0.769 µM
CYP2A6 [3]; [7]
  % Turnover Mean: 0.91%
  [metaxalone] Mean: 0.784 µM
  % Turnover %: −5.7%
CYP2A6 [3]; [8]
  % Turnover %: 3.7% and 4.8%
  [metaxalone]: 0.837 µM and 0.762 µM and 0.753 µM
CYP2A6 [3]; 7.5 μM metaxalone, 5 pmol cyp
  % Turnover Mean: 3.7%
  [metaxalone] Mean: 8.14 µM
  % Turnover %: −2.3%
CYP2A6 [3]; [9]
  % Turnover %: 9.0% and 4.3%
  [metaxalone]: 7.69 µM and 8.08 µM and 8.64 µM
CYP2A6 [3]; 7.5 μM metaxalone, 20 pmol cyp
  % Turnover Mean: −1.8%
  [metaxalone] Mean: 8.59 µM
CYP2A6 [3]; [10]
  % Turnover %: −1.6% and 6.1% and −9.8%
  [metaxalone]: 8.58 µM and 7.93 µM and 9.27 µM
CYP2A6 [3]; [5]
  Substrate: 0
CYP2B6; 0.75 μM metaxalone
  % Turnover Mean: 12.4%
  % inhibition of turnover Mean: 58.3%
  Mean Conc.: 0.676 µM
  % Turnover: 12.1% and 11.3% and 13.8%
  % inhibition of turnover: 59.3% and 62.0% and 53.7%
  Conc.: 0.678 µM and 0.684 µM and 0.665 µM
CYP2B6; 7.5 μM metaxalone
  % Turnover Mean: 14.0%
  % inhibition of turnover Mean: 43.3%
  Mean Conc.: 7.33 µM
  % Turnover: 7.7%
CYP2B6; [11]
  % Turnover: 14.8% and 19.4%
  % inhibition of turnover: 68.7% and 40.0% and 21.1%
  Conc.: 7.86 µM and 7.26 µM and 6.86 µM
CYP2D6 [4]
  % Turnover: 11.1%
